# Laboratory results: ChEMBL document CHEMBL1201862, “PubChem BioAssay data set” (2004)
# The source made the active and inactive calls.
# Experiments:
# [1] = target: T1, Alkaline phosphatase, tissue-nonspecific isozyme (Homo sapiens, UniProt P05186); test: human TNAP enzyme inhibitors, SAR follow-up, biochemical, luminescent, dose response (AID 1056)
# T1 sequence (P05186 whole entry): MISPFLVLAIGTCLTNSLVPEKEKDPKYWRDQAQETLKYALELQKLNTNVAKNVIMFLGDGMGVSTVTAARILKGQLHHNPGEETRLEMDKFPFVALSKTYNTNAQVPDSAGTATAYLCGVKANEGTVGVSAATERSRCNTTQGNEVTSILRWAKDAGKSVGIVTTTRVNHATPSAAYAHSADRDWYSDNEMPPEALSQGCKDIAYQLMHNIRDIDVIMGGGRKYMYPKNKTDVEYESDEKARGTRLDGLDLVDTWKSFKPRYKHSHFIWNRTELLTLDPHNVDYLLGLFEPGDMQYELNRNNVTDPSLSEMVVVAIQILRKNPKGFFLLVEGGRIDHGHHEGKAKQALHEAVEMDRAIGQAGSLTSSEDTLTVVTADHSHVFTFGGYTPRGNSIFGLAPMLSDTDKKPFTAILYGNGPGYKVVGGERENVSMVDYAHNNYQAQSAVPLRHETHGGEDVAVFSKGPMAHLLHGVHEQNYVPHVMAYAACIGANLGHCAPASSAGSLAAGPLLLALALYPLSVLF
# [2] = target: Glyceraldehyde-3-phosphate dehydrogenase (Homo sapiens, UniProt P04406)
# Sequence of Glyceraldehyde-3-phosphate dehydrogenase (P04406 whole entry): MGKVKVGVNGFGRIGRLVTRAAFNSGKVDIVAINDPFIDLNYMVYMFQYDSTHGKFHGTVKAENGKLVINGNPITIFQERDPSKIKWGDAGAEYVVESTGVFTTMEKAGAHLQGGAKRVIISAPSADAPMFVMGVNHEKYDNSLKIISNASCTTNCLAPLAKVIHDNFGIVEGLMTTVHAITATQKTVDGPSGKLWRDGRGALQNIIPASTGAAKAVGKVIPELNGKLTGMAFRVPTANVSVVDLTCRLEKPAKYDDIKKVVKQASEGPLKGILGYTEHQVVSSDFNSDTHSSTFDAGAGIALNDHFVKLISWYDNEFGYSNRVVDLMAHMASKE
# [3] = target: T2, Acyl-homoserine lactone acylase PvdQ (Pseudomonas aeruginosa (strain LESB58), UniProt Q9I194); test: P. aeruginosa PvdQ acylase inhibitors, dose response, biochemical, fluorescence, plate reader and imaging, cherry-picks (AID 493231)
# T2 sequence (Q9I194 whole entry): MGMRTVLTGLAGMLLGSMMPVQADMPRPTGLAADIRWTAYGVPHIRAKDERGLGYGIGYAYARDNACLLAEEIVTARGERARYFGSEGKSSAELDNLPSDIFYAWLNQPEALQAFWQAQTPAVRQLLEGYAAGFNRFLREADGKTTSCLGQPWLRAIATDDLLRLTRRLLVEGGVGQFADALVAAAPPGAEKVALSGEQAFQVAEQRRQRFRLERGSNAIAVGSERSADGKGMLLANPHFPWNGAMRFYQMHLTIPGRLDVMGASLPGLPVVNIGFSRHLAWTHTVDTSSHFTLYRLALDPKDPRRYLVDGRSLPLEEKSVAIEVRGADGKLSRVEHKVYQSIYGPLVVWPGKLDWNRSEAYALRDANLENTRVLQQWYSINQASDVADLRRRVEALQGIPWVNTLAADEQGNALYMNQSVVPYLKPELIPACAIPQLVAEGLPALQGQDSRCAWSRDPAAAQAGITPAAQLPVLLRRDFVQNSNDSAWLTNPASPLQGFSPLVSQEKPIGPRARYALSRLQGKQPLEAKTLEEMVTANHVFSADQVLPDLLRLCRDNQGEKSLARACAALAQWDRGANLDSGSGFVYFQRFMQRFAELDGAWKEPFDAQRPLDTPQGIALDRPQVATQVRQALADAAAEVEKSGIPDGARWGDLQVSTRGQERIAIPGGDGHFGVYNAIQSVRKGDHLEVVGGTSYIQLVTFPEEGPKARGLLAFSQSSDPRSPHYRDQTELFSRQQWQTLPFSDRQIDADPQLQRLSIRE
# [4] = target: Eukaryotic translation initiation factor 4E (Mus musculus, UniProt P63073); test: eIF4E–eIF4G protein interaction inhibitors, dose response, biochemical, TR-FRET (AID 855); type: functional;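 also: potency for disrupting eIF4E binding to eIF4GI seen as loss of FRET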
# Sequence of Eukaryotic translation initiation factor 4E (P63073 whole entry): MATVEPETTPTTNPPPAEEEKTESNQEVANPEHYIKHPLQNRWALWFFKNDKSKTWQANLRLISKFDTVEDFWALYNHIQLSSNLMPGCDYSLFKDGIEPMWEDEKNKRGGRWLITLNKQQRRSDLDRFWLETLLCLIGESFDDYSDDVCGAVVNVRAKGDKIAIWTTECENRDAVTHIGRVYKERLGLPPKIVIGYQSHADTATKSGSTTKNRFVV
# Beta-galactosidase = Beta-galactosidase (Escherichia coli, UniProt Q8VNN2); test: PubChem AID 485352; type: functional
# Sequence of Beta-galactosidase (Q8VNN2 whole entry): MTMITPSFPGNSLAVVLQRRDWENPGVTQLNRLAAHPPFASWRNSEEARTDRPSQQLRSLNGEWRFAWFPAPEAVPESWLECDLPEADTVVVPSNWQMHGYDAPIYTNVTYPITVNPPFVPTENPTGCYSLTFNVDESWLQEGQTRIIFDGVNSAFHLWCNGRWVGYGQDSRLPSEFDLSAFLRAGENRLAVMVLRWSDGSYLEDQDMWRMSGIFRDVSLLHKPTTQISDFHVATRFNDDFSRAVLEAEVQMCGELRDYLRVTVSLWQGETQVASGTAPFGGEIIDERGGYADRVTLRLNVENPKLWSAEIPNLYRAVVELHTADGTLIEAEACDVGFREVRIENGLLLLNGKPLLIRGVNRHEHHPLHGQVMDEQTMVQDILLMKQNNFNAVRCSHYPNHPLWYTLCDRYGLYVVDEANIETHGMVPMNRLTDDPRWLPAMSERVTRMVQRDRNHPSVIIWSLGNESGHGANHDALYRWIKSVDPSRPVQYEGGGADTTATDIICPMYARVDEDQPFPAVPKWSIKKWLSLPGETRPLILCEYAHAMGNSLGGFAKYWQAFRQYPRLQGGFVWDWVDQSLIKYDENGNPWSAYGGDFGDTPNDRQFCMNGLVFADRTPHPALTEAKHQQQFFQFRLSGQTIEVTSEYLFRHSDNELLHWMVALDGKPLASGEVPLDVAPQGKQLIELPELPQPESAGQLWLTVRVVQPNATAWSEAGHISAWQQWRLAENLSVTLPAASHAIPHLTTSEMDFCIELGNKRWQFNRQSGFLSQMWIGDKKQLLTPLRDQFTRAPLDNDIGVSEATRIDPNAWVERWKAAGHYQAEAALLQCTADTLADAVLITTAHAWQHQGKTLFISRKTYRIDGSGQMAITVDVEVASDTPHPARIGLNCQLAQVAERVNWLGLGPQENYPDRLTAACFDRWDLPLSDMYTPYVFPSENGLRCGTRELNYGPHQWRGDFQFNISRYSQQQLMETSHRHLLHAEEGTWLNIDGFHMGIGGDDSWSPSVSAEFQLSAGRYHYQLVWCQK
# [5] = target: T3, Type-1 angiotensin II receptor (Homo sapiens, UniProt P30556); test: AT1 receptor antagonists, dose response, selectivity assay for APJ receptor antagonist project, cell-based, uHTS hits (AID 463214); type: functional;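 also: antagonist potency against angiotensin II stimulated AT1 response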
# T3 sequence (P30556 whole entry): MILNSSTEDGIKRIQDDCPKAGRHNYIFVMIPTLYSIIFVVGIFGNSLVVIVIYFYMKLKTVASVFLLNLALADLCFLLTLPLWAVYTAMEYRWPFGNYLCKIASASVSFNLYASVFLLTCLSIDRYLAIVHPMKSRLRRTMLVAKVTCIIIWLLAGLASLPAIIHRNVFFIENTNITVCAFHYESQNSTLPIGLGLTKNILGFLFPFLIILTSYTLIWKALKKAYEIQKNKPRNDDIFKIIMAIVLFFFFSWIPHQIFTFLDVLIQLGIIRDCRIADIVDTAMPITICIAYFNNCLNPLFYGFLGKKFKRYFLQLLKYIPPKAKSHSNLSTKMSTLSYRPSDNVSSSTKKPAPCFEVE
# Mucolipin-3 = target: T4, Mucolipin-3 (Homo sapiens, UniProt Q8TDD5); test: Fluorescence counterscreen assay for […] agonists: dose response cell-based high-throughput screening assay to identify agonists of the transient receptor potential channel ML3 (TRPML3). [Related pubchem assays: 1424, 1448 ]; type: functional
# T4 sequence (Q8TDD5 whole entry): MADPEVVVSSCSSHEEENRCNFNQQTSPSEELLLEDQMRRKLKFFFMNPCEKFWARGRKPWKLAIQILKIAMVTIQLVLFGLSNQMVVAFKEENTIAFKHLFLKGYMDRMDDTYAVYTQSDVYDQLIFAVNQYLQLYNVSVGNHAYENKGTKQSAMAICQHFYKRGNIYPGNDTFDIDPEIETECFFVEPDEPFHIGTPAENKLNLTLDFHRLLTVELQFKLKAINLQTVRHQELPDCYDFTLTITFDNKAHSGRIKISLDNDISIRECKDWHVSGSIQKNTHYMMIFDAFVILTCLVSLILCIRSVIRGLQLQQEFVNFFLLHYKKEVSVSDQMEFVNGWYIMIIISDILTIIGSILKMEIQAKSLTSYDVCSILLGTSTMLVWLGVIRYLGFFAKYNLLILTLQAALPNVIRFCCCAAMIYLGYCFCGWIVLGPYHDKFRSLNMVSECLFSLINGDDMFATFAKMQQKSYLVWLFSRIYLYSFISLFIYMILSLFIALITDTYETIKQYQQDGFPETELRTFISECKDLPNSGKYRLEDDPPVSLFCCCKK
# Ion channel NompC = Ion channel NompC (Danio rerio, UniProt Q7T1G6); test: Dose response cell-based high-throughput screening assay for agonists of the transient receptor potential channel N1 (TRPN1). [Related pubchem assays (depositor defined):AID1424, AID1448]; type: functional
# Sequence of Ion channel NompC (Q7T1G6 whole entry): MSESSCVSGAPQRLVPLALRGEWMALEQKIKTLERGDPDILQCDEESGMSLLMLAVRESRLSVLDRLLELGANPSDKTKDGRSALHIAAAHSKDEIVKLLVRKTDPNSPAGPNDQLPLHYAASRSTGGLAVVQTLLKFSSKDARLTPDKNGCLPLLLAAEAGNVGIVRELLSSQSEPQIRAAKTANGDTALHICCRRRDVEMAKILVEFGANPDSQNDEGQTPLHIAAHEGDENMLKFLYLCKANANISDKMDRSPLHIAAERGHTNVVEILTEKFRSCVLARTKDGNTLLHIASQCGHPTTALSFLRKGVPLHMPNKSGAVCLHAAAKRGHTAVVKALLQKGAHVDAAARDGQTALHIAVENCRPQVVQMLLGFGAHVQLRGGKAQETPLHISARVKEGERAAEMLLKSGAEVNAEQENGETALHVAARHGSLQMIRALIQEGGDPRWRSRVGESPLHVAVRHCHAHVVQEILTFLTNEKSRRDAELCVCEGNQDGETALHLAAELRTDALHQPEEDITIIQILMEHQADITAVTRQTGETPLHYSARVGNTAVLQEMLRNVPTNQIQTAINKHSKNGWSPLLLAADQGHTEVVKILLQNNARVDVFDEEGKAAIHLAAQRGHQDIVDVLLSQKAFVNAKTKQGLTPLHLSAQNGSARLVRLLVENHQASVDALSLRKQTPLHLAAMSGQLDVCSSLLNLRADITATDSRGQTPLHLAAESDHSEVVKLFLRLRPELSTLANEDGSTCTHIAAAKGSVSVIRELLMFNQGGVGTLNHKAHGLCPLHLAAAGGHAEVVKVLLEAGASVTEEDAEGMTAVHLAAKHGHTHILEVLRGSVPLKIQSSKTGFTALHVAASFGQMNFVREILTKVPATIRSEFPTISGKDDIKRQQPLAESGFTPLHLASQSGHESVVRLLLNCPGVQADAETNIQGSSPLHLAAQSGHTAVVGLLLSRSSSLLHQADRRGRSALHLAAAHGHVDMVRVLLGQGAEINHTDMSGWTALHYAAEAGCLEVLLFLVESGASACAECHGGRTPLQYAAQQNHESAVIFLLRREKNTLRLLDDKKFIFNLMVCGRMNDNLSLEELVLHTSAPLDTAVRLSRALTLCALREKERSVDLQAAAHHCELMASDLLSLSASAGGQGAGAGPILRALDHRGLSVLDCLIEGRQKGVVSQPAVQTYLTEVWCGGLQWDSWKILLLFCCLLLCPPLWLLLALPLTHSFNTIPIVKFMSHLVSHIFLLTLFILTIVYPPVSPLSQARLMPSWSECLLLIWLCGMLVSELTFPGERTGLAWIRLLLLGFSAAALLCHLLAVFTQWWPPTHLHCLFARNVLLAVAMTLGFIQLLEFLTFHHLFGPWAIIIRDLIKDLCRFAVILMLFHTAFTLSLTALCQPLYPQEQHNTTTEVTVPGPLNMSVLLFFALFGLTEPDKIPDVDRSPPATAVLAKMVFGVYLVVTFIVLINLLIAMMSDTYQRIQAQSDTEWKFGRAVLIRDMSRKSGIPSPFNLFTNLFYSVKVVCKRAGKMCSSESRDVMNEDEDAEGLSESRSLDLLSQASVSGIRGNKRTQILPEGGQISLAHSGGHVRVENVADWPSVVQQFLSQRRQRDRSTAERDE
# CAAX prenyl protease 2 [6] = target: T5, CAAX prenyl protease 2 (Saccharomyces cerevisiae S288c, UniProt Q03530); type: biochemical
# T5 sequence (Q03530 whole entry): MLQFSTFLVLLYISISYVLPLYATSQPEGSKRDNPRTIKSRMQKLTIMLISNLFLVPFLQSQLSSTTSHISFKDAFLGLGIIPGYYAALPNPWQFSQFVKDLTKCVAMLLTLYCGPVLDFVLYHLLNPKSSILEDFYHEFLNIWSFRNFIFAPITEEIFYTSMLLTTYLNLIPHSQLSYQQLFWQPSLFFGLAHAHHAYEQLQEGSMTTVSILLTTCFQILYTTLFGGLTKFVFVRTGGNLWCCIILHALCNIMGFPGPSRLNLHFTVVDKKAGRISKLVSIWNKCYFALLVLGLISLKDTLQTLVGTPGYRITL
# Trypsin = Trypsin (Sus scrofa, UniProt P00761); test: porcine trypsin inhibitors, dose response, selectivity assay for Rce1 protease inhibitor project, biochemical, quenched peptide fluorescence, cherry-pick (AID 488789)
# Sequence of Trypsin (P00761 whole entry): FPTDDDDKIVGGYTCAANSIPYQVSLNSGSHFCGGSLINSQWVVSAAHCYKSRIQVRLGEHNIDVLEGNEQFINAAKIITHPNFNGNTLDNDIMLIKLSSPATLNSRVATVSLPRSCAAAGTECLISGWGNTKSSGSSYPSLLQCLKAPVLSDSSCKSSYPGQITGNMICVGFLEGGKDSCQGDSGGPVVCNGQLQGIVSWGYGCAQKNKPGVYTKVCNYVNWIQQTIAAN
# [7] = Luminescence Cell-Based Dose Retest to Confirm Inhibitors of Cancer Stem Cells. [Related pubchem assays (depositor defined):AID2717, AID2721]; type: functional; details: Homo sapiens
# HEK293 [8] = test: NOD1 signaling inhibitors, primary screen, cell-based, luminescence, uHTS (AID 1578); type: functional; details: Homo sapiens
# HEK293 [9] = test: cells; type: functional, cell-based; details: Homo sapiens
# HEK293 [10] = test: cells; type: functional, cell-based; details: Homo sapiens; remark: listed apart in the source
# [11] = target: T6, Heat shock factor protein 1 (Mus musculus, UniProt P38532); test: inhibition of MG132-induced HSE-luciferase signal, confirmation, cell-based, NIH3T3, luminescence, dose retest (AID 2382); type: functional;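 also: NIH3T3 fibroblasts with HSF1-driven luciferase reporter stressed by proteasome inhibitor MG132; luminescence from HSF1-driven luciferase expression after 8 hours of MG132 stress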
# T6 sequence (P38532 whole entry): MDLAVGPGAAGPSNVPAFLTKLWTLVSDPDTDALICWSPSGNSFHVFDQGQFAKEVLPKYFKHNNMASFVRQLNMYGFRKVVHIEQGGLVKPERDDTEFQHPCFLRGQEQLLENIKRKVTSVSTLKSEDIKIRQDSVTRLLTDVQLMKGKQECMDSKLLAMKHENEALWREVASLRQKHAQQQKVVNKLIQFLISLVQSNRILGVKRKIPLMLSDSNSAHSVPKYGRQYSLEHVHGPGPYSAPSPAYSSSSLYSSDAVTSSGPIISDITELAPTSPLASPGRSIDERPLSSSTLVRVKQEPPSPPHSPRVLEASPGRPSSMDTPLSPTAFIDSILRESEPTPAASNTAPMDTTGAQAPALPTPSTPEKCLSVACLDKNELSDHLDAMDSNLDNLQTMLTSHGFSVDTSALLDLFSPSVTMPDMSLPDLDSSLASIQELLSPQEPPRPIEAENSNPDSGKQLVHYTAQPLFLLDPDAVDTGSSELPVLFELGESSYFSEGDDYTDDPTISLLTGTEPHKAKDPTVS
# [12] = target: Nucleotide-binding oligomerization domain-containing protein 2 (Homo sapiens, UniProt Q9HC29); test: NOD2 signaling inhibitors, cell-based, luminescence, uHTS, HEK293 (AID 1566); type: functional
# HEK293 [13] = test: NOD2 signaling inhibitors in MDP-stimulated cells, cell-based, uHTS, luminescence (AID 2001); type: functional; details: Homo sapiens
# CAAX prenyl protease 2 [14] = target: T7, CAAX prenyl protease 2 (Homo sapiens, UniProt Q9Y256); test: human Rce1 protease inhibitors, dose response, biochemical, yeast membranes, quenched-peptide fluorescence, cherry-pick (AID 588849)
# T7 sequence (Q9Y256 whole entry): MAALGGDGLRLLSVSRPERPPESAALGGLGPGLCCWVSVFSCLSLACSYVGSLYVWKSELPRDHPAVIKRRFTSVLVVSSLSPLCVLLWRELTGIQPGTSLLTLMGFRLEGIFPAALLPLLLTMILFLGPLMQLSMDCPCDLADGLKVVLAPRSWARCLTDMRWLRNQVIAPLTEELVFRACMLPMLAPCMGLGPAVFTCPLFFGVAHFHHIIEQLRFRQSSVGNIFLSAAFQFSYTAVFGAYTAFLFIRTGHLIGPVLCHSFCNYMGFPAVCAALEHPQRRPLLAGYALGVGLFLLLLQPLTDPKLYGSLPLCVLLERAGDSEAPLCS
# Nonstructural protein 1 = Nonstructural protein 1 (Influenza A virus, UniProt Q194T2); type: functional, Influenza A virus (A/California/07/2009(H1N1))
# Sequence of Nonstructural protein 1 (Q194T2 whole entry): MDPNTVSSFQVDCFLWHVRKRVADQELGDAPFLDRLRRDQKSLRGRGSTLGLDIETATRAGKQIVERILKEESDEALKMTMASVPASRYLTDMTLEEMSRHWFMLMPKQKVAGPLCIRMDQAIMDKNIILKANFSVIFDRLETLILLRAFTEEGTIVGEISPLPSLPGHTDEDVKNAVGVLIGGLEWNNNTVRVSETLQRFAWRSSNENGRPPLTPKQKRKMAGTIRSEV
# [15] = target: T8, Polyadenylate-binding protein 1 (Homo sapiens, UniProt P11940); test: PABP1 MLLE–PAM2 interaction inhibitors, dose response, miRNA deadenylation inhibitor project, biochemical, fluorescence polarization, Cy5-PAM2 peptide, secondary (AID 602260); type: functional; details: read-out: IC50_Mean
# T8 sequence (P11940 whole entry): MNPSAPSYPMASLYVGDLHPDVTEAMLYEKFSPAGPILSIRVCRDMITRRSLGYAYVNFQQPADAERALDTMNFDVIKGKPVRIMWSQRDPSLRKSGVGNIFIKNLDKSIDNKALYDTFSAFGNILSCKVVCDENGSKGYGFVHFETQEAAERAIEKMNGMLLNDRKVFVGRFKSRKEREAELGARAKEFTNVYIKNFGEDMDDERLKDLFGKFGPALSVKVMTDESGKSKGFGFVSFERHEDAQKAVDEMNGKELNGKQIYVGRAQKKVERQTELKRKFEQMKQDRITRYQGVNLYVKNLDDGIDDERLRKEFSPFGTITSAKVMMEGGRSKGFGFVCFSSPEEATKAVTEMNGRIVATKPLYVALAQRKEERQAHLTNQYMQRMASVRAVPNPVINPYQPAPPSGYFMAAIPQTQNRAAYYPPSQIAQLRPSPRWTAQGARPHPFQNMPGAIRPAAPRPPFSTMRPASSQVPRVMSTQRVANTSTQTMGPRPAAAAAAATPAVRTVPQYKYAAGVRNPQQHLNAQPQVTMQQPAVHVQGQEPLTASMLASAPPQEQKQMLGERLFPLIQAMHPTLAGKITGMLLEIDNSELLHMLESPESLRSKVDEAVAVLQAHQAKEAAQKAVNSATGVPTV
# [16] = target: T8, Polyadenylate-binding protein 1; test: PABP1 MLLE–PAM2 binding inhibitor potency, dose response, biochemical, fluorescence polarization, FITC-PAM2 peptide (AID 602259); type: functional; details: read-out: IC50_Mean
# [17] = target: T9, Mannose-6-phosphate isomerase (Homo sapiens, UniProt P34949); test: human PMI inhibitors, high substrate, primary screen, biochemical, fluorescence intensity, high mannose 6-phosphate (AID 1220)
# T9 sequence (P34949 whole entry): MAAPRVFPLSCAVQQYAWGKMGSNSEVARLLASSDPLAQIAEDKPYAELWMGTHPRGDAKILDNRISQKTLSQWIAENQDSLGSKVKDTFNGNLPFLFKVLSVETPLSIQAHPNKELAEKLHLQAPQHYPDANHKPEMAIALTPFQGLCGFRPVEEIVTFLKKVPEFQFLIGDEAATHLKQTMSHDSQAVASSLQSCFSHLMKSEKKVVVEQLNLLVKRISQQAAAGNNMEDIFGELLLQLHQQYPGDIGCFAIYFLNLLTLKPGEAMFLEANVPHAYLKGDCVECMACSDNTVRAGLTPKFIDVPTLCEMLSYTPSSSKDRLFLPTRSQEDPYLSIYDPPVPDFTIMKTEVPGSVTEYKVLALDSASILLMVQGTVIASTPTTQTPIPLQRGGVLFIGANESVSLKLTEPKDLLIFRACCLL
# Estrogen receptor beta = Estrogen receptor beta (Homo sapiens, UniProt Q92731); test: ERβ–SRC-3 coactivator interaction inhibitors, confirmation, orthogonal assay, biochemical, ELISA, streptavidin-HRP readout (AID 1060)
# Sequence of Estrogen receptor beta (Q92731 whole entry): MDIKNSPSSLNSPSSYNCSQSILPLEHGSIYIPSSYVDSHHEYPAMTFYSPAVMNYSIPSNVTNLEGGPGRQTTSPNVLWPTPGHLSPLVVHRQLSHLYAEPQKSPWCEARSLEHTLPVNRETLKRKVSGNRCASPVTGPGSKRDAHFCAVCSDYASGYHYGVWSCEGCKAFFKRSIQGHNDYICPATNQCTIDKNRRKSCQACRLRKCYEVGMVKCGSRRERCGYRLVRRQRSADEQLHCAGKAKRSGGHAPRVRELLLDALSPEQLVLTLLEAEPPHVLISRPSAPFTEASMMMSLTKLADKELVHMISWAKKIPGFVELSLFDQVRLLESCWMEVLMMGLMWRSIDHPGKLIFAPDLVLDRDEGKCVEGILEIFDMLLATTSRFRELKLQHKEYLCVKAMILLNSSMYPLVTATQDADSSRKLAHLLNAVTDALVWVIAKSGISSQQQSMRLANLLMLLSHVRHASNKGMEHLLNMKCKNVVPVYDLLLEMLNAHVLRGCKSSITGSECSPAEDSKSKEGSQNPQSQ
smiles,measurement,setting,value
COC(=O)c1cc(-c2ccc(Br)cc2)on1,IC50,[1],> 100 µM (inactive)
same,IC50,[2],> 100 µM (not active)
same,AC50,[3],4.37 µM (active)
O=C(OCc1cc(=O)n2c(n1)sc1ccccc12)c1ccc(O)cc1O,IC50,[4],50 µM (inactive)
CNS(=O)(=O)c1cccc(C(=O)OCC(=O)c2cc3ccccc3o2)c1,EC50,Beta-galactosidase,> 40 µM (inactive)
same,IC50,[5],15.5 µM (active)
S=C(NCCCc1ccccc1)Nc1ccccc1Cl,EC50,Mucolipin-3,> 29.9 µM (not active)
same,EC50,Ion channel NompC,> 29.9 µM (inactive)
CS(=O)(=O)Nc1ccccc1C(=O)Nc1cccc(Cl)c1,AC50,CAAX prenyl protease 2 [6],21.8 µM (active)
same,AC50,Trypsin,6.73 µM (active)
same,AC50,[7],45.2 µM (active)
O=[N+]([O-])c1ccc(Oc2ccc(S(=O)(=O)Nc3ccccc3)cc2)cc1,EC50,Mucolipin-3,> 29.9 µM (not active)
same,EC50,Ion channel NompC,> 29.9 µM (inactive)
CCOc1ccccc1-n1c(SCC(=O)Nc2ccccc2C(=O)O)nc2ccccc2c1=O,EC50,HEK293 [8],> 20 µM (inactive)
same,IC50,HEK293 [9],> 20 µM (inactive)
same,IC50,HEK293 [10],> 20 µM (inactive)
same,EC50,[11],4.46 µM (active)
same,EC50,[12],> 20 µM (inactive)
same,IC50,HEK293 [13],> 20 µM (inactive)
COC(=O)Cn1c(CCC(=O)O)ccc1-c1ccccc1,AC50,CAAX prenyl protease 2 [14],32.7 µM (active)
COc1ccc(Br)cc1S(=O)(=O)n1cc(C(N)=O)c2ccccc21,IC50,[1],> 100 µM (inactive)
same,IC50,[2],> 100 µM (not active)
CCOC(=O)N1CCN(C(c2cccnc2)c2ccc3cccnc3c2O)CC1 (stereo not drawn),IC50,[4],> 64 µM (inactive)
same,IC50,Nonstructural protein 1,14.6 µM (active)
same,IC50,[15],> 66 µM (inactive)
same,IC50,[16],> 66 µM (inactive)
same,IC50,[17],32 µM (active)
same,IC50,Estrogen receptor beta,10.6 µM (not active)
